Experimental data from ChEMBL document CHEMBL1201862, “PubChem BioAssay data set” (2004).
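Growth conditions: 96-well plates. Treatment: test compound, 48 hours, 5 concentrations. Analysis: linear interpolation between bracketing concentrations; unreached endpoints set to highest concentration. Here, GI50 denotes the concentration required for 50% inhibition of growth.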 The source made the active and inactive calls. No stated cut-off is given here; in the data, active = GI50 up to about 1.1 µM and inactive = higher.

Legend:
Test in all cases: DTP human tumour cell line panel, 48 h
RPMI-8226 = tested on: RPMI-8226
MDA-MB-435 = tested on: MDA-MB-435
KM12 = tested on: KM12
OVCAR-8 = tested on: OVCAR-8
COLO 205 = tested on: COLO 205
MOLT-4 = tested on: MOLT-4
LOX IMVI = tested on: LOX IMVI
EKVX = tested on: EKVX
MDA-N = tested on: MDA-N
SK-OV-3 = tested on: SK-OV-3
SF-295 = tested on: SF-295
SK-MEL-2 = tested on: SK-MEL-2
SW-620 = tested on: SW-620
UACC-257 = tested on: UACC-257
SNB-19 = tested on: SNB-19
NCI-H460 = tested on: NCI-H460
DU-145 = tested on: DU-145
MDA-MB-231 = tested on: MDA-MB-231
HOP-92 = tested on: HOP-92
SF-268 = tested on: SF-268
HCT-15 = tested on: HCT-15
M14 = tested on: M14
OVCAR-4 = tested on: OVCAR-4
UO-31 = tested on: UO-31
MCF7 = tested on: MCF7
SK-MEL-28 = tested on: SK-MEL-28
HL-60 = tested on: HL-60
Hs-578T = tested on: Hs-578T
U-251 = tested on: U-251
786-0 = tested on: 786-0
K562 = tested on: K562
RXF 393 = tested on: RXF 393
HCT-116 = tested on: HCT-116
A498 = tested on: A498
NCI/ADR-RES = tested on: NCI/ADR-RES
A549 = tested on: A549
HT-29 = tested on: HT-29
OVCAR-3 = tested on: OVCAR-3
SN12C = tested on: SN12C
NCI-H23 = tested on: NCI-H23
SR = tested on: SR
TK-10 = tested on: TK-10
CAKI-1 = tested on: CAKI-1
UACC-62 = tested on: UACC-62
SK-MEL-5 = tested on: SK-MEL-5
PC-3 = tested on: PC-3
Malme-3M = tested on: Malme-3M
SNB-75 = tested on: SNB-75
NCI-H522 = tested on: NCI-H522
OVCAR-5 = tested on: OVCAR-5
ACHN = tested on: ACHN
IGROV-1 = tested on: IGROV-1
NCI-H226 = tested on: NCI-H226
CCRF-CEM = tested on: CCRF-CEM
HOP-62 = tested on: HOP-62
SF-539 = tested on: SF-539
T47D = tested on: T47D
HCC 2998 = tested on: HCC 2998

Measured: GI50

CC(C)(C)/N=c1/n(C(C)(C)C)oc(=O)n1-c1ccccc1
> 50 µM: HCT-15
inactive: RPMI-8226 > 50 µM | MDA-MB-435 > 50 µM | KM12 > 50 µM | OVCAR-8 > 50 µM | COLO 205 > 50 µM | MOLT-4 > 50 µM | LOX IMVI > 50 µM | EKVX > 50 µM | MDA-N > 50 µM | SK-OV-3 > 50 µM | SF-295 > 50 µM | SK-MEL-2 > 50 µM | SW-620 > 50 µM | UACC-257 > 50 µM | SNB-19 > 50 µM | NCI-H460 > 50 µM | DU-145 > 50 µM | MDA-MB-231 > 50 µM | HOP-92 > 50 µM | SF-268 > 50 µM | M14 > 50 µM | OVCAR-4 > 50 µM | UO-31 > 50 µM | MCF7 > 50 µM | SK-MEL-28 > 50 µM | HL-60 41.1 µM | Hs-578T > 50 µM | U-251 > 50 µM | 786-0 > 50 µM | K562 > 50 µM | RXF 393 > 50 µM | HCT-116 > 50 µM | A498 > 50 µM | NCI/ADR-RES > 50 µM | A549 > 50 µM | HT-29 > 50 µM | OVCAR-3 > 50 µM | SN12C > 50 µM | NCI-H23 > 50 µM | SR > 50 µM | TK-10 > 50 µM | CAKI-1 > 50 µM | UACC-62 > 50 µM | SK-MEL-5 > 50 µM | PC-3 > 50 µM | Malme-3M > 50 µM | SNB-75 35.6 µM | NCI-H522 > 50 µM | OVCAR-5 > 50 µM | ACHN > 50 µM | IGROV-1 > 50 µM | NCI-H226 > 50 µM | CCRF-CEM > 50 µM | HOP-62 > 50 µM | SF-539 > 50 µM

COc1cc2c(cc1OS(C)(=O)=O)N=C[C@@H]1CCCN1C2=O
inactive: RPMI-8226 > 100 µM | MDA-MB-435 > 100 µM | KM12 > 100 µM | OVCAR-8 > 100 µM | COLO 205 > 100 µM | MOLT-4 > 100 µM | LOX IMVI > 100 µM | EKVX > 100 µM | SK-OV-3 > 100 µM | SF-295 > 100 µM | SK-MEL-2 > 100 µM | SW-620 > 100 µM | UACC-257 > 100 µM | SNB-19 > 100 µM | NCI-H460 > 100 µM | DU-145 > 100 µM | MDA-MB-231 > 100 µM | HOP-92 > 100 µM | T47D > 100 µM | SF-268 > 100 µM | M14 > 100 µM | OVCAR-4 > 100 µM | UO-31 > 100 µM | MCF7 > 100 µM | SK-MEL-28 > 100 µM | HL-60 > 100 µM | Hs-578T > 100 µM | U-251 > 100 µM | 786-0 > 100 µM | RXF 393 > 100 µM | HCT-116 > 100 µM | HCC 2998 > 100 µM | A498 > 100 µM | A549 > 100 µM | HT-29 > 100 µM | OVCAR-3 > 100 µM | SN12C > 100 µM | NCI-H23 > 100 µM | SR > 100 µM | TK-10 > 100 µM | CAKI-1 > 100 µM | UACC-62 > 100 µM | SK-MEL-5 > 100 µM | Malme-3M > 100 µM | SNB-75 > 100 µM | NCI-H522 > 100 µM | ACHN > 100 µM | IGROV-1 > 100 µM | NCI-H226 > 100 µM | CCRF-CEM 72.3 µM | SF-539 > 100 µM
> 100 µM: HCT-15

COC(=O)/C(=C\C(=O)c1ccc(Br)cc1)NN=C(c1ccccc1)c1ccccc1
> 10 µM: HCT-15
inactive: RPMI-8226 > 10 µM | MDA-MB-435 > 10 µM | KM12 > 10 µM | OVCAR-8 > 10 µM | COLO 205 > 10 µM | MOLT-4 > 10 µM | LOX IMVI > 10 µM | EKVX > 10 µM | MDA-N > 10 µM | SK-OV-3 > 10 µM | SF-295 > 10 µM | SW-620 > 10 µM | UACC-257 > 10 µM | DU-145 > 10 µM | MDA-MB-231 > 10 µM | HOP-92 > 10 µM | T47D > 10 µM | SF-268 > 10 µM | M14 > 10 µM | OVCAR-4 > 10 µM | MCF7 > 10 µM | SK-MEL-28 > 10 µM | HL-60 > 10 µM | 786-0 > 10 µM | K562 > 10 µM | RXF 393 > 10 µM | HCC 2998 > 10 µM | A549 > 10 µM | HT-29 > 10 µM | SN12C > 10 µM | NCI-H23 > 10 µM | SR > 10 µM | TK-10 > 10 µM | CAKI-1 > 10 µM | UACC-62 > 10 µM | SK-MEL-5 > 10 µM | PC-3 > 10 µM | Malme-3M > 10 µM | SNB-75 > 10 µM | IGROV-1 > 10 µM | CCRF-CEM > 10 µM | HOP-62 > 10 µM

Cc1ccc(-n2c(N)c(C#N)c3[nH]nc(N)c3c2=O)cc1
inactive: RPMI-8226 > 100 µM | MDA-MB-435 > 100 µM | KM12 > 100 µM | OVCAR-8 > 100 µM | COLO 205 > 100 µM | MOLT-4 > 100 µM | LOX IMVI > 100 µM | EKVX 95.1 µM | SK-OV-3 > 100 µM | SF-295 > 100 µM | SK-MEL-2 > 100 µM | SW-620 > 100 µM | UACC-257 > 100 µM | SNB-19 > 100 µM | NCI-H460 > 100 µM | DU-145 > 100 µM | MDA-MB-231 > 100 µM | HOP-92 > 100 µM | T47D > 100 µM | SF-268 > 100 µM | M14 > 100 µM | OVCAR-4 > 100 µM | UO-31 > 100 µM | MCF7 > 100 µM | SK-MEL-28 > 100 µM | HL-60 > 100 µM | Hs-578T > 100 µM | U-251 > 100 µM | 786-0 > 100 µM | K562 > 100 µM | RXF 393 > 100 µM | HCT-116 > 100 µM | HCC 2998 > 100 µM | A498 > 100 µM | NCI/ADR-RES > 100 µM | HT-29 > 100 µM | NCI-H23 > 100 µM | SR > 10 µM | TK-10 > 100 µM | CAKI-1 > 100 µM | UACC-62 > 100 µM | SK-MEL-5 > 100 µM | PC-3 > 100 µM | SNB-75 > 100 µM | ACHN > 100 µM | IGROV-1 > 100 µM | NCI-H226 41 µM | CCRF-CEM > 100 µM | HOP-62 > 100 µM | SF-539 > 100 µM
> 100 µM: HCT-15

NS(=O)(=O)c1ccc(/C=C/c2ccc(O)cc2)cc1
inactive: COLO 205 19.9 µM | EKVX 22.7 µM | MDA-N 33 µM | SK-OV-3 23.9 µM | SF-295 21.3 µM | SK-MEL-2 25.9 µM | SW-620 25.6 µM | UACC-257 30.4 µM | SNB-19 44.4 µM | NCI-H460 18.7 µM | DU-145 16.2 µM | MDA-MB-231 14.8 µM | HOP-92 10.7 µM | T47D 21.1 µM | M14 24.4 µM | UO-31 8.73 µM | MCF7 17.5 µM | SK-MEL-28 27.5 µM | 786-0 10.7 µM | RXF 393 51.6 µM | HCT-116 23 µM | HCC 2998 19.7 µM | A498 41.5 µM | NCI/ADR-RES 14 µM | OVCAR-3 19 µM | SN12C 18.9 µM | TK-10 43.8 µM | SK-MEL-5 11.4 µM | PC-3 18.8 µM | Malme-3M 26.9 µM | SNB-75 15.6 µM | OVCAR-5 40.6 µM | HOP-62 31.5 µM

O=C1c2c(O)cccc2Cc2cccc(O)c21 [ANTHRALIN]
inactive: A498 1.22 µM
active: RPMI-8226 0.321 µM | MDA-MB-435 0.348 µM | KM12 0.355 µM | OVCAR-8 0.321 µM | EKVX 0.2 µM | MDA-N 0.321 µM | SK-OV-3 0.351 µM | SF-295 0.269 µM | UACC-257 0.216 µM | SNB-19 0.435 µM | NCI-H460 0.334 µM | DU-145 0.264 µM | SF-268 0.376 µM | M14 0.256 µM | OVCAR-4 0.447 µM | UO-31 0.3 µM | MCF7 0.255 µM | SK-MEL-28 0.783 µM | HL-60 0.259 µM | Hs-578T 0.29 µM | U-251 0.313 µM | 786-0 0.386 µM | RXF 393 0.32 µM | A549 0.334 µM | HT-29 0.322 µM | OVCAR-3 0.382 µM | NCI-H23 0.327 µM | SR 0.31 µM | TK-10 0.684 µM | CAKI-1 0.337 µM | UACC-62 0.415 µM | SK-MEL-5 0.178 µM | OVCAR-5 0.57 µM | ACHN 0.319 µM | IGROV-1 0.375 µM | NCI-H226 0.314 µM | HOP-62 0.347 µM | SF-539 0.273 µM
